Assay results as given in patent publication US8628770B2, “Slimming cosmetic composition containing a substance inducing the production of IL-6” (Sanofi, priority 1999, dated 2014).

Test system: mature adipocytes 3T3-L1
Assay: Production of IL-6 by the mature adipocytes 3T3-L1 (ELISA)
Assay type: cell-based, murine
Conditions: reference IL-6 inducer at 50 ng/ml
Description: The biological effects of substance C in vitro has been studied on the murine line 3T3-L1. This preadipocyte line, routinely cultured in DMEM medium ([…]) enriched with 10% foetal calf serum has the property of differentiating into mature adipocytes in the presence of inducers such as insulin and indomethacin (Slieker L. J. Biochem. Biophys. Res. Com. 1998, 251, 225-229). […] This passage from the stage of immature cell to the stage of functional adipocyte can be morphologically assessed by the appearance of intracytoplasmic lipid storage vesicles which are visible under the microscope or which can be biochemically detected by measuring the production of leptin, the hormone for satiety produced solely by mature adipocytes.
The influence of substance C on the adipocyte activity was evaluated at two levels. […]
Mature adipocytes 3T3-L1 (harvested after 10 days of differentiation induced by the insulin (5 μg/ml) and indomethacin (125 μm) combination) are stimulated with substance C at 1% (v/v) for 24 hours. The culture supernatant is then removed and its IL-6 content measured by ELISA (Enzyme Linked Immunosorbent Assay) according to the supplier's instructions (R&D Systems, Abingdon, GB). […]

Substance: TNF-α
- IL-6 content of culture supernatant: 52 pg/mL
